Source: publication PMC6162447, “Engineering Gain-of-Function Analogues of the Spider Venom Peptide HNTX-I, A Potent Blocker of the hNaV1.7 Sodium Channel” (Toxins, 2018)
Entries after “also recorded” stand apart in the source; their conditions may differ. Bridge positions count the residues as written; N and C are the ends. Peptide text beside a SMILES is read from it.

Key:
[1] = biological target: T1, hNaV1.7 (Homo sapiens, UniProt Q15858); experiment: Whole-cell patch clamp on hNaV1.7 expressed in HEK 293 cells; format: cell-based; conditions: for IC50: HEK 293 cells transfected with hNaV1.7 plus human β1 and β2 subunits, room temperature (20–25 °C), 50 ms depolarization to −10 mV from holding −100 mV, mean ± SEM
T1 construct: expressed in transfected cells; host or cells: HEK 293
T1 sequence (O60939 30-215): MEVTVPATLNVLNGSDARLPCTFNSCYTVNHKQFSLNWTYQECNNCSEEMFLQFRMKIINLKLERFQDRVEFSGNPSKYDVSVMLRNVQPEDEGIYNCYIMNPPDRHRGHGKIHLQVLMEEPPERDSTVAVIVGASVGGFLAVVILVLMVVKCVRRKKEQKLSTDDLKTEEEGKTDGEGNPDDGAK
T1 sequence (Q07699 19-218, further chain): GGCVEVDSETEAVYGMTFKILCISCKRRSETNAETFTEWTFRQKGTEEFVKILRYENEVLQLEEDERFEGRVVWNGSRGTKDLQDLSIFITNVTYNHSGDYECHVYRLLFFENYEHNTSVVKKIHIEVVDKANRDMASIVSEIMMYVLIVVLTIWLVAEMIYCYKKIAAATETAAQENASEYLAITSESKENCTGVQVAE
T1 sequence (Q15858 other isoform, or with tags, fused parts or gaps): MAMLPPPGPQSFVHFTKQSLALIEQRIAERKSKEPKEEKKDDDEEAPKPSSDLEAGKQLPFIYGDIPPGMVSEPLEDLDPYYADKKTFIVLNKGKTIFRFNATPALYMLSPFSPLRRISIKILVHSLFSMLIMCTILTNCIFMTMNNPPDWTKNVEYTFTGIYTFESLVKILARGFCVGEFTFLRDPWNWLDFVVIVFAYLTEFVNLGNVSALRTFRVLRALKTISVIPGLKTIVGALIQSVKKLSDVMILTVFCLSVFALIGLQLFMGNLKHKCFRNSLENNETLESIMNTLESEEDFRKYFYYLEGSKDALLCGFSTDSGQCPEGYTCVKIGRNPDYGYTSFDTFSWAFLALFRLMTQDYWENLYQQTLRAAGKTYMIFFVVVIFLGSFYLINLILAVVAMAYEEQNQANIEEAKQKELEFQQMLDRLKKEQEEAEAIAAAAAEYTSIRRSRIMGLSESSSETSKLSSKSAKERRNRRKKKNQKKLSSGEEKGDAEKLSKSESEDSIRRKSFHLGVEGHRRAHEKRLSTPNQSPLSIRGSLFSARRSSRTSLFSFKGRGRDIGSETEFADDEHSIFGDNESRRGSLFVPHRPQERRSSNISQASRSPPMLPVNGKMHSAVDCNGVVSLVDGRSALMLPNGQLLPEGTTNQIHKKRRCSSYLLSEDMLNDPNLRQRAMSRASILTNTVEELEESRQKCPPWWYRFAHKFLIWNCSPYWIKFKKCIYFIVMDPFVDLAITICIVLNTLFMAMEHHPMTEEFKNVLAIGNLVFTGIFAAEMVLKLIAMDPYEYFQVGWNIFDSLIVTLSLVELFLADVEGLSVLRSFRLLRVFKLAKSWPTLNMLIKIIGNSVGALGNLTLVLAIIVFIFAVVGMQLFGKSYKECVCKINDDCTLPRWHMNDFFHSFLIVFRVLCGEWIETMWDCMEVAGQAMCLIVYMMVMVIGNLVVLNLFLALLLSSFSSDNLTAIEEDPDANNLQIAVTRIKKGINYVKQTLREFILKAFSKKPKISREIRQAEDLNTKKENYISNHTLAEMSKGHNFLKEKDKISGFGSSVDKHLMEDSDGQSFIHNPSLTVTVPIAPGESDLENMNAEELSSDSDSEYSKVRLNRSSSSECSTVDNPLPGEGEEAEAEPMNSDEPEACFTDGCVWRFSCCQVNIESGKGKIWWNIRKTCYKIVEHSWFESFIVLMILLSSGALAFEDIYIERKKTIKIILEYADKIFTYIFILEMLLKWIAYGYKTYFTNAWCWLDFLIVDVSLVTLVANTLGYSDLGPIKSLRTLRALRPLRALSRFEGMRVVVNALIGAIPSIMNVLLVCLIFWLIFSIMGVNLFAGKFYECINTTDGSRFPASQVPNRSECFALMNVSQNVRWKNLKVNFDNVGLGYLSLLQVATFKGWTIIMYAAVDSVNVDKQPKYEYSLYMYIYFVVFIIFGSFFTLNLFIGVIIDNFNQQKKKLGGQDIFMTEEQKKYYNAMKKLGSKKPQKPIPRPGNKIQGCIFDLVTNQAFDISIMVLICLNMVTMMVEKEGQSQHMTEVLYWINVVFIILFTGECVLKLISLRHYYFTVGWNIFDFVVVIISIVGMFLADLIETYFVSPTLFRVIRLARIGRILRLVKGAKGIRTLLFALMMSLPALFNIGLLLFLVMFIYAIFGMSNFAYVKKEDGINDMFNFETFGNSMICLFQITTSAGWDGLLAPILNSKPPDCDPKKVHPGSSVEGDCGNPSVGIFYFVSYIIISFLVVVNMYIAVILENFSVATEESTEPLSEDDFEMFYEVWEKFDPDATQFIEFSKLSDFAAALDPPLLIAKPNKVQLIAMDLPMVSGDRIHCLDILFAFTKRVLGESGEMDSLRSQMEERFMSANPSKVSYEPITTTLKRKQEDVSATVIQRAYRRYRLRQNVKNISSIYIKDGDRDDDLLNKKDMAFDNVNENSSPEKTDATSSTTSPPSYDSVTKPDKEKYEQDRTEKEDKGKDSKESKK
Experimental: We maintained human embryonic kidney (HEK) 293 cells at 37 °C in a humidified 5% CO2 incubator in Dulbecco’s Modified Eagle’s Medium (DMEM) supplemented with 10% fetal bovine serum (FBS), 2 mM L-glutamine, 100 units/mL penicillin and 100 µg/mL streptomycin. cDNA genes encoding rat Nav1.2 and mouse Nav1.6 were subcloned into the vectors pcDNA3.1, respectively. We subcloned the gene that encodes hNaV1.7 into the vector pcDNA3.1-mod. We transfected the hNaV1.7 channel (3 μg) together with plasmids β1- (1 μg) and β2-eGFP ([…]), which encode the human β1 and β2 subunits, and Nav1.2 and Nav1.6 together with eGFP in HEK 293 cells using Lipofectamine 2000 (Invitrogen, Carlsbad, CA, USA) per the manufacturer’s instructions.
We performed whole-cell recordings using an EPC 10 patch clamp platform (HEKA, Elektronik, Lambrecht, Germany) at room temperature (20–25 °C). We made suction pipettes with access resistance of 2.0–3.0 MΩ from borosilicate glass capillary tubes (VWR micropipettes; VWR Co., West Chester, PA, USA) using a 2-step vertical microelectrode puller (PC-10; Narishige Co., Ltd., Tokyo, Japan) and compensated for voltage errors using 80% serial-resistance compensation. The standard pipette solution contained (in mM): 140 CsCl, 10 NaCl, 1 ethylene glycol-bis (β-aminoethyl ether)-N,N,N′,N′-tetraacetic acid (EGTA), and 10 HEPES (pH 7.4). The bath solution contained (in mM): 140 NaCl, 2 CaCl2, 1 MgCl2, 5 KCl, 20 4-(2-hydroxyethyl)-1-piperazineethanesulfonic acid (HEPES) and 10 glucose (pH 7.4). We purchased all chemicals from Sigma-Aldrich (St. Louis, MO, USA) and dissolved them in water. Data were acquired using PATCHMASTER software version 2x73 (HEKA Elektronik Dr. Schulze GmbH, Lambrecht, Germany). We filtered macroscopic sodium currents at 5 kHz and sampled them at 20 kHz. We acquired voltage clamp recordings 5 min after establishing a whole-cell configuration to allow adequate equilibration between the micropipette solution and the cell interior. We elicited channel current by 50 milliseconds of depolarization potential to −10 mV from the holding voltage of −100 mV.
We analyzed the data using Igor Pro software version 6.10A (WaveMetrics, Lake Oswego, OR, USA), Sigmaplot software version 10 (Sigma, St. Louis, MO, USA), OriginPro software version 8 (OriginLab Corp., Northampton, MA, USA) and Prism software version 5 (GraphPad Software, San Diego, CA, USA). Concentration–response curves were fitted using the following Hill logistic equation:y = fmax − (fmax − fmin)/(1 + (x/IC50)^n)(1) where fmax and fmin respectively represent the channel’s maximum and minimum responses to toxins, fmin was set to 0, x represents toxin concentration and n is an empirical Hill coefficient. All quantitative results are presented as mean ± standard error of the mean (SEM).

[2] = test system: insect sodium channels; conditions: cited from earlier work
Text: (§1) Previously, we reported the identification of 33-residue peptide µ-TRTX-Hhn2b (HNTX-I), a member of NaSpTx family 1, from the venom of the spider Selenocosmia hainana. Although the amino acid sequence of this family is highly conserved, HNTX-I has shown weak affinity on insect sodium channels and no effect on mammalian voltage-gated sodium channels (VGSCs), unlike the majority of peptide toxins in NaSpTx family 1 [20]. In this study, we used HNTX-I as a framework and engineered analogues of it based on sequence conservation in the family. Ultimately, we engineered a gain-of-function analogue ...

[3] = test system: mammalian voltage-gated sodium channels (VGSCs); conditions: including hNaV1.7; cited from earlier work
Text: as §1, with “Pain is a medical condition that interferes with normal human life and work and reduces human well-being worldwide. Human voltage-gated sodium channel NaV1.7 (hNaV1.7) is a compelling target that plays a key role in human pain signaling. […] We engineered analogues of HNTX-I based on sequence conservation in NaSpTx family 1. Substitution of Asn for Ser at position 23 or Asp for His at ... || Previously,” for “Previously,”

SMILES: CC(C)C[C@H](NC(=O)[C@H](CC(C)C)NC(=O)[C@@H](NC(=O)[C@H](CCCCN)NC(=O)[C@@H]1CSSC[C@@H]2NC(=O)[C@H](CCC(=O)O)NC(=O)[C@H](CC(N)=O)NC(=O)[C@H](CCCCN)NC(=O)CNC(=O)[C@@H]3CCCN3C(=O)[C@H](C(C)C)NC(=O)[C@@H]3CSSC[C@H](NC(=O)[C@H](C)NC(=O)[C@H](Cc4ccc(O)cc4)NC(=O)CNC(=O)[C@H](CO)NC(=O)[C@H](CSSC[C@H](NC(=O)[C@@H](N)CCC(=O)O)C(=O)N[C@@H](CCCCN)C(=O)NCC(=O)N[C@@H](Cc4ccccc4)C(=O)NCC(=O)N[C@@H](CCCCN)C(=O)N[C@@H](CO)C(=O)N3)NC2=O)C(=O)N[C@@H](CO)C(=O)N[C@@H](CO)C(=O)N[C@@H](CCCNC(=N)N)C(=O)N[C@@H](CC(=O)O)C(=O)N[C@@H](CCCCN)C(=O)N[C@@H](Cc2c[nH]c3ccccc23)C(=O)N1)C(C)C)C(=O)O [N23S] (H-ECKGFGKSCVPGKNECCSGYACSSRDKWCKVLL-OH; disulfide 2-17, 9-22, 16-29)
- IC50 ([1]; n ≥ 3, SEM): 0.435 ± 0.072 µM

SMILES: CC(C)C[C@H](NC(=O)[C@H](CC(C)C)NC(=O)[C@@H](NC(=O)[C@H](CCCCN)NC(=O)[C@@H]1CSSC[C@@H]2NC(=O)[C@H](CCC(=O)O)NC(=O)[C@H](CC(N)=O)NC(=O)[C@H](CCCCN)NC(=O)CNC(=O)[C@@H]3CCCN3C(=O)[C@H](C(C)C)NC(=O)[C@@H]3CSSC[C@H](NC(=O)[C@H](C)NC(=O)[C@H](Cc4ccc(O)cc4)NC(=O)CNC(=O)[C@H](CO)NC(=O)[C@H](CSSC[C@H](NC(=O)[C@@H](N)CCC(=O)O)C(=O)N[C@@H](CCCCN)C(=O)NCC(=O)N[C@@H](Cc4ccccc4)C(=O)NCC(=O)N[C@@H](CCCCN)C(=O)N[C@@H](CO)C(=O)N3)NC2=O)C(=O)N[C@@H](CO)C(=O)N[C@@H](CO)C(=O)N[C@@H](CCCNC(=N)N)C(=O)N[C@@H](Cc2c[nH]cn2)C(=O)N[C@@H](CCCCN)C(=O)N[C@@H](Cc2c[nH]c3ccccc23)C(=O)N1)C(C)C)C(=O)O [N23S–D26H] (H-ECKGFGKSCVPGKNECCSGYACSSRHKWCKVLL-OH; disulfide 2-17, 9-22, 16-29)
- IC50 ([1]; n ≥ 3, SEM): 0.079 ± 0.004 µM

SMILES: CC(C)C[C@H](NC(=O)[C@H](Cc1c[nH]c2ccccc12)NC(=O)[C@@H](NC(=O)[C@H](CCCCN)NC(=O)[C@@H]1CSSC[C@@H]2NC(=O)[C@H](CCC(=O)O)NC(=O)[C@H](CC(N)=O)NC(=O)[C@H](CCCCN)NC(=O)CNC(=O)[C@@H]3CCCN3C(=O)[C@H](C(C)C)NC(=O)[C@@H]3CSSC[C@H](NC(=O)[C@H](C)NC(=O)[C@H](Cc4ccc(O)cc4)NC(=O)CNC(=O)[C@H](CO)NC(=O)[C@H](CSSC[C@H](NC(=O)[C@@H](N)CCC(=O)O)C(=O)N[C@@H](CCCCN)C(=O)NCC(=O)N[C@@H](Cc4ccccc4)C(=O)NCC(=O)N[C@@H](CCCCN)C(=O)N[C@@H](CO)C(=O)N3)NC2=O)C(=O)N[C@@H](CO)C(=O)N[C@@H](CO)C(=O)N[C@@H](CCCNC(=N)N)C(=O)N[C@@H](Cc2c[nH]cn2)C(=O)N[C@@H](CCCCN)C(=O)N[C@@H](Cc2c[nH]c3ccccc23)C(=O)N1)C(C)C)C(=O)O [N23S–D26H–L32W] (H-ECKGFGKSCVPGKNECCSGYACSSRHKWCKVWL-OH; disulfide 2-17, 9-22, 16-29)
- IC50 ([1]; n ≥ 3, SEM): 0.071 ± 0.005 µM

SMILES: CC(C)C[C@H](NC(=O)[C@H](CC(C)C)NC(=O)[C@@H](NC(=O)[C@H](CCCCN)NC(=O)[C@@H]1CSSC[C@@H]2NC(=O)[C@H](CCC(=O)O)NC(=O)[C@H](CC(N)=O)NC(=O)[C@H](CCCCN)NC(=O)CNC(=O)[C@@H]3CCCN3C(=O)[C@H](C(C)C)NC(=O)[C@@H]3CSSC[C@H](NC(=O)[C@H](C)NC(=O)[C@H](Cc4ccc(O)cc4)NC(=O)CNC(=O)[C@H](CO)NC(=O)[C@H](CSSC[C@H](NC(=O)[C@@H](N)CCC(=O)O)C(=O)N[C@@H](CCCCN)C(=O)NCC(=O)N[C@@H](Cc4ccccc4)C(=O)NCC(=O)N[C@@H](CCCCN)C(=O)N[C@@H](CO)C(=O)N3)NC2=O)C(=O)N[C@@H](CC(N)=O)C(=O)N[C@@H](CO)C(=O)N[C@@H](CCCNC(=N)N)C(=O)N[C@@H](CC(=O)O)C(=O)N[C@@H](CCCCN)C(=O)N[C@@H](Cc2c[nH]c3ccccc23)C(=O)N1)C(C)C)C(=O)O [Native HNTX-I] (H-ECKGFGKSCVPGKNECCSGYACNSRDKWCKVLL-OH; disulfide 2-17, 9-22, 16-29 (inferred); N-terminus and C-terminus assumed)
- Activity on NaV1.7 at a concentration of 10 µM ([1]; 10 µM peptide, HEK 293 cells (Figure 2A–C)): negligible activity
- IC50 ([1]; n ≥ 3): > 10 µM
- Affinity on insect sodium channels [2]: weak affinity
- Effect on mammalian voltage-gated sodium channels (VGSCs) [3]: negligible activity; also recorded: no effect
